Results reported in US9376380B2 (University of Pittsburgh—Of the Commonwealth System of …, priority 2011, dated 2016).
Like-named read-outs stand apart in the source and are kept apart here.

Experiments:
[1] = target: T1, CB1 receptor (Homo sapiens, UniProt P21554); experiment: [3H]CP-55,940 radioligand competition binding, CB1
T1 construct: host or cells: cell membrane preparations

[2] = target: CB2 receptor (Homo sapiens, UniProt P34972); experiment: [3H]CP-55,940 radioligand competition binding, CB2; set-up: host or cells: cell membrane preparations
Sequence of CB2 receptor (P34972 whole entry): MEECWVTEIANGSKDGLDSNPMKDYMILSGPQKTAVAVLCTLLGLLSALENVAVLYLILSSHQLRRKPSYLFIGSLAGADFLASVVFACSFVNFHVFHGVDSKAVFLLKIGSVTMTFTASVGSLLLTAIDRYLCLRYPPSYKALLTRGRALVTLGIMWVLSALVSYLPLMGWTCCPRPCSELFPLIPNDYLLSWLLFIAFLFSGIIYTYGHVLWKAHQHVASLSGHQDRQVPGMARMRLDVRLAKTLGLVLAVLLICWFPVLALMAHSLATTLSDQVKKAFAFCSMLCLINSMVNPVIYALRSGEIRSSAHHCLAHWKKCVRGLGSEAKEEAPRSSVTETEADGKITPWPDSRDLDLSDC

[3] = [3H]CP-55,940 displacement, read-out: Ki (CB1)
[4] = [3H]CP-55,940 displacement, read-out: Ki (CB2)

T1 sequence (P21554 whole entry): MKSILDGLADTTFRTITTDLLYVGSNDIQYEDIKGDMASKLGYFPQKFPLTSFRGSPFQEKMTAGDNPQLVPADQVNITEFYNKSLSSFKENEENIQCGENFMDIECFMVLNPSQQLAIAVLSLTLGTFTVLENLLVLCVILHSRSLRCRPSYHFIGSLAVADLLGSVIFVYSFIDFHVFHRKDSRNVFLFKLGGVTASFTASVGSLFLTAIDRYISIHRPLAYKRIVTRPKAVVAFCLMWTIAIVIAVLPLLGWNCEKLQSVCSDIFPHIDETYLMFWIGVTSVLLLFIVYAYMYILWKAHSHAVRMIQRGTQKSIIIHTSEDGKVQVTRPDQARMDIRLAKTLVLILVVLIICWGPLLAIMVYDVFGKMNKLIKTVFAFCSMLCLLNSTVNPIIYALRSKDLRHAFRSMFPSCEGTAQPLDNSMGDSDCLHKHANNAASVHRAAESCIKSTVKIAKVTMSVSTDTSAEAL

Row | Ki [1, 3] | Ki [2, 4] | Compound | also measured
1 | 0.109 µM | 0.494 µM | Cc1ccc(C(NC(=O)Cc2ccccc2)NC(=O)Cc2ccccc2)cc1 [Compound 8, N,N′-(p-tolylmethylene)bis(2-phenylacetamide)] | –
2 | > 20 µM | – | O=C(Cc1ccccc1)NC(Cc1ccccc1)NC(=O)Cc1ccccc1 [Compound 44, N,N′-(2-Phenylethane-1,1-diyl)bis(2-phenylacetamide)] | –
3 | > 20 µM | 9.32 µM | O=C(Cc1ccccc1)NC(CCc1ccccc1)NC(=O)Cc1ccccc1 [Compound 45, N,N′-(3-Phenylpropane-1,1-diyl)bis(2-phenylacetamide)] | –
4 | > 20 µM | – | O=C(Cc1ccccc1)NC(/C=C/c1ccccc1)NC(=O)Cc1ccccc1 [Compound 46, (E)-N,N′-(3-Phenylprop-2-ene-1,1-diyl)bis(2-phenylacetamide)] | –
5 | > 20 µM | 0.167 µM | CCN(CC)c1ccc(C(NC(=O)C=Cc2ccccc2)NC(=O)C=Cc2ccccc2)cc1 (stereo not shown) [Compound 48, N,N′-((4-(Diethylamino)phenyl)methylene)bis(3-phenylacrylamide)] | SI: selectivity index for CB2 ([2]; Ki(CB1)/Ki(CB2) ratio): >119
6 | > 20 µM | 2.64 µM | CCN(CC)c1ccc(C(NC(=O)C(C)C)NC(=O)C(C)C)cc1 [Compound 50, N,N′-((4-(diethylamino)phenyl)methylene)bis(2-methylpropanamide)] | –
7 | > 20 µM | 3.55 µM | CCN(CC)c1ccc(C(NC(=O)C(C)(C)C)NC(=O)C(C)(C)C)cc1 [Compound 51, N,N′-((4-(diethylamino)phenyl)methylene)bis(2,2-dimethylpropanamide)] | –
8 | – | – | CCN(CC)c1ccc(CN(C23CC4CC(CC(C4)C2)C3)S(=O)(=O)c2ccccc2)cc1 [Compound 56, N-((3s,5s,7s)-Adamantan-1-yl)-N-(4-(diethylamino)benzyl)benzenesulfonamide] | Ki [1]: 11 µM; Ki [2]: 0.084 µM
9 | > 20 µM | – | CCN(CC)c1ccc(CN(C23CC4CC(CC(C4)C2)C3)S(=O)(=O)c2ccc(C)cc2)cc1 [Compound 60, N-((3s,5s,7s)-Adamantan-1-yl)-N-(4-(diethylamino)benzyl)-4-methylbenzenesulfonamide] | –
10 | > 20 µM | – | CCN(CC)c1ccc(CN(C(=O)Cc2ccc(Cl)cc2)C23CC4CC(CC(C4)C2)C3)cc1 [Compound 65, N-((3s,5s,7s)-Adamantan-1-yl)-2-(4-chlorophenyl)-N-(4-(diethylamino)benzyl)acetamide] | –
11 | – | 1.28 µM | CCCCCCCN(Cc1ccc(N(CC)CC)cc1)C(=O)c1ccc(N(C)C)cc1 [Compound 78, N-(4-(Diethylamino)benzyl)-4-(dimethylamino)-N-heptylbenzamide] | –
12 | – | 0.212 µM | CCCCCCCN(Cc1ccc(N(CC)CC)cc1)C(=O)C1CCCCC1 [Compound 79, N-(4-(Diethylamino)benzyl)-N-heptylcyclohexanecarboxamide] | –
13 | – | > 20 µM | CCCCCCCC(=O)N(CCCCCCC)Cc1ccc(N(CC)CC)cc1 [Compound 80, N-(4-(Diethylamino)benzyl)-N-heptyloctanamide] | –
14 | 1.77 µM | – | CCN(CC)c1ccc(CN(c2ccc(Cl)cc2)S(=O)(=O)c2ccccc2)cc1 [Compound 81, N-(4-Chlorophenyl)-N-(4-(diethylamino)benzyl)benzenesulfonamide] | –
15 | – | 0.222 µM | CCN(CC)c1ccc(CN(c2ccc(Cl)cc2)S(=O)(=O)c2ccc(C(C)C)cc2)cc1 [Compound 87, N-(4-Chlorophenyl)-N-(4-(diethylamino)benzyl)-4-isopropylbenzenesulfonamide] | –
16 | – | 0.0054 µM | CCN(CC)c1ccc(CN(c2ccc(C)cc2)S(=O)(=O)c2ccc(C)cc2)cc1 [Compound 94, N-(4-(Diethylamino)benzyl)-4-methyl-N-(p-tolyl)benzenesulfonamide] | –
17 | – | 6.74 µM | CCN(CC)c1ccc(CNc2ccc(Cl)cc2)cc1 [G, 4-(((4-Chlorophenyl)amino)methyl)-N,N′-diethylaniline] | –

Row | Compound | Ki [1, 3] | Ki [2, 4] | also measured
18 | CCCCCCCN(Cc1ccc(N(CC)CC)cc1)C(=O)Cc1ccc(Cl)cc1 [Compound 77, 2-(4-Chlorophenyl)-N-(4-(diethylamino)benzyl)-N-heptylacetamide] | – | 0.696 µM | –
